Assay results from patent US20190117616A1, “METHOD FOR REGULATING KDM4A, KDM4B, AND KDM4C ACTIVITY” (National Tsing Hua University, priority 2017, published 2019).

Key:
[1] = target: T1, KDM4B (Homo sapiens, UniProt O94953); assay: KDM4B enzymatic inhibition (residual activity, IC50, kinetics); format: biochemical; conditions: for Inhibitory effects of Myricetin analogues against KDM4B activity: Table 1 (not given), 100 μM compounds
T1 sequence (O94953 1-1096): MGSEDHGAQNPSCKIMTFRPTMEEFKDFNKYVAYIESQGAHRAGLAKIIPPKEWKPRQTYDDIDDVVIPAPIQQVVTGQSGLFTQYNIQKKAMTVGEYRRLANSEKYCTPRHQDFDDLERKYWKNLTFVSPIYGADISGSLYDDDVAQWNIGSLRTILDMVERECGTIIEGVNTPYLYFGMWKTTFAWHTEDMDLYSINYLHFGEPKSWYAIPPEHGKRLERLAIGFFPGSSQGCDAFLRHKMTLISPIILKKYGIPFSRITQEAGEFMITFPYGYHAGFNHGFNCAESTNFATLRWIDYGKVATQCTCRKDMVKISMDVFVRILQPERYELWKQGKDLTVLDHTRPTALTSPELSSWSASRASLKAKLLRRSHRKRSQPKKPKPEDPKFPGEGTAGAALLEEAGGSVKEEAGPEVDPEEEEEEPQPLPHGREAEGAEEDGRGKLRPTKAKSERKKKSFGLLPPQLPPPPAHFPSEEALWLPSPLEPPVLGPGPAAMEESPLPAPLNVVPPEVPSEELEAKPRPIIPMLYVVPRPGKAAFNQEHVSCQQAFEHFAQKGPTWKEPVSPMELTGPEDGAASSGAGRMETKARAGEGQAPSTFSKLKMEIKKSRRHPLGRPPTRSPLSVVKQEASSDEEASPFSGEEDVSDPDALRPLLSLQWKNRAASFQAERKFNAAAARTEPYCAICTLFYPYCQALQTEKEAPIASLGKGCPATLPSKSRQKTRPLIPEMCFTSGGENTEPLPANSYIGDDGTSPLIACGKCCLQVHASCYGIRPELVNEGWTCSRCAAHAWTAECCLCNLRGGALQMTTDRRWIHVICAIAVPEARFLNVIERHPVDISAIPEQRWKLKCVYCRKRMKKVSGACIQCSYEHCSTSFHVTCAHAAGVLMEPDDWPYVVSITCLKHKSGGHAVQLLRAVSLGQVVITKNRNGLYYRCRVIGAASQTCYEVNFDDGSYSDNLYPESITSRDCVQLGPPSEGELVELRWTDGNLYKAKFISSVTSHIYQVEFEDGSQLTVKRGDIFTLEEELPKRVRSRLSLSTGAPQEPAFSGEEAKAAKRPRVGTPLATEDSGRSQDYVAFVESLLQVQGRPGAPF

[2] = target: T2, JMJD2E/KDM4E (Homo sapiens, UniProt B2RXH2); conditions: in vitro, literature; cited from earlier work
T2 sequence (B2RXH2 1-506): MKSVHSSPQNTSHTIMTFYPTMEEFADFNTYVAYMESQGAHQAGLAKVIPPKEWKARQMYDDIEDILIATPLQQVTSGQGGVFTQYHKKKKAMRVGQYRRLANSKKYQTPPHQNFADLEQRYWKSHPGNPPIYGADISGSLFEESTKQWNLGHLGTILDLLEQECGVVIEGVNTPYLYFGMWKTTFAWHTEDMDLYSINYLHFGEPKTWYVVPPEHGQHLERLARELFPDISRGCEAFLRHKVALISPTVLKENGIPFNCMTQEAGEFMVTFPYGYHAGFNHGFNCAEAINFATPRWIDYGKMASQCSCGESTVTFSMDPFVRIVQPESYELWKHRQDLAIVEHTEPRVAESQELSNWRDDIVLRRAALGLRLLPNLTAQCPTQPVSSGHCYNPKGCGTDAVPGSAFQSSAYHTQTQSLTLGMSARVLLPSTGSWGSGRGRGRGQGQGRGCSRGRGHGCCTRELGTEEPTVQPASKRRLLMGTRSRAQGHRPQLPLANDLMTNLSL

[3] = literature; cited from earlier work
[4] = tested on: herpes virus; conditions: literature; cited from earlier work
[5] = tested on: C4-2B xenografts; assay: C4-2B xenograft tumor growth in nude mice; format: in vivo; conditions: C4-2B xenograft model
[6] = tested on: C4-2B cells
[7] = tested on: PZ-HPV-7 cells; assay: MTT assay, immortalized normal PZ-HPV-7; format: cell-based; conditions: different concentrations over 4 days
Source text: (§1) Whether Myricetin blocked cell growth of AR+ cells was next evaluated.

[8] = tested on: C4-2B cells; assay: MTT cell proliferation assay, C4-2B; format: cell-based; conditions: different concentrations over 4 days
Source text: as §1

[9] = tested on: LNCaP cells; assay: MTT cell growth assay, LNCaP; format: cell-based; conditions: different concentrations over 4 days
Source text: as §1

[10] = target: T3, KDM4C (Homo sapiens, UniProt Q9H3R0); conditions: toward α-ketoglutarate, FIG. 2A
T3 sequence (Q9H3R0 1-1056): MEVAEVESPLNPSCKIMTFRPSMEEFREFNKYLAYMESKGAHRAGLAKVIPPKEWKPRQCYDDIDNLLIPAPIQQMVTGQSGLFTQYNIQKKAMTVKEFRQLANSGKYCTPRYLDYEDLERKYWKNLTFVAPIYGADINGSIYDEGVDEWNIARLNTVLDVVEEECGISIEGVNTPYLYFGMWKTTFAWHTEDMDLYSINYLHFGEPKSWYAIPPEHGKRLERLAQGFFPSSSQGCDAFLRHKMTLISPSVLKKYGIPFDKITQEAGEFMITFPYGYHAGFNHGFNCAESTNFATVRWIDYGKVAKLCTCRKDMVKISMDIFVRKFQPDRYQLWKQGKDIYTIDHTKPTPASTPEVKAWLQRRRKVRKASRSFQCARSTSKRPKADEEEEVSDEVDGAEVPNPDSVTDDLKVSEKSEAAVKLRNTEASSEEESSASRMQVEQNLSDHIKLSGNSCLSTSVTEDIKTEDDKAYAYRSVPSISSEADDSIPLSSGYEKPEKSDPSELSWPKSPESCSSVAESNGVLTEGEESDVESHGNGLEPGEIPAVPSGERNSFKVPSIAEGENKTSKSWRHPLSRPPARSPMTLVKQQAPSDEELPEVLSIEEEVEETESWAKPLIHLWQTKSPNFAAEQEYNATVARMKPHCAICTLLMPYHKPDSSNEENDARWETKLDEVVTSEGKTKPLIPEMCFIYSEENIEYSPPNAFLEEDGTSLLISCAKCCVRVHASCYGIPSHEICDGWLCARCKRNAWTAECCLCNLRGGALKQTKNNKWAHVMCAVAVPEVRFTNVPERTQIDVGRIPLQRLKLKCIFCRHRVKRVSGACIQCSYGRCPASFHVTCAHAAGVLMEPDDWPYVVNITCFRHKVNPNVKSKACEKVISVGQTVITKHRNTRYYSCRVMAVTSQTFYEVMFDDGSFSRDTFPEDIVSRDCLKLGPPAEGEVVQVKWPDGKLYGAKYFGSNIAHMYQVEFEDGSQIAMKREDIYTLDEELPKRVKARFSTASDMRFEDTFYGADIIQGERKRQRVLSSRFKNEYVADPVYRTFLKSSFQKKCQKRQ

[11] = tested on: H3K9me3/H3K36me3 in C4-2B cells; assay: H3K9me3 and H3K36me3 levels in treated C4-2B cells, western blot; format: cell-based; conditions: treated for two days, cell lysates
Source text: FIG. 5B: H3K9me3 and H3K36me3 levels in Myricetin-treated C4-2B cells for two days. The H3K9me3 and H3K36me3 signals are detected in cell lysates by western blot analysis.
as §1

[12] = target: T3, KDM4C; assay: H3 demethylation by bacteria-expressed KDM4C, western blot; format: biochemical; conditions: 100 μM inhibitor, 10 μM enzyme, 5 μM H3, 37° C., 30 min
[13] = tested on: C4-2B cells; assay: Cell viability of C4-2B, PLGA-Myricetin versus free Myricetin; conditions: read-out: IC50, cell viability (cytotoxicity) of C4-2B cells
[14] = tested on: C4-2B xenografts; assay: Ki-67 and CD31 immunohistochemistry of xenograft tumor sections; format: in vivo, nude mice; conditions: FIG. 7B
Procedure: FIG. 7B: Ki-67 and CD31 immunohistochemistry staining of the tumor sections isolated from the xenografts.
The endothelial cell-specific marker CD31 in xenografts was also determined.

With `O=c1c(O)c(-c2ccc(O)c(O)c2)oc2c(O[C@@H]3O[C@H](CO)[C@@H](O)[C@H](O)[C@H]3O)c(O)cc(O)c12` [Gossypin] the “Inhibitory effects of Myricetin analogues against KDM4B activity” value [1] was “significant inhibitory effects”.

For `COc1cc(-c2oc3cc(O)cc(O)c3c(=O)c2O)ccc1O` [Isorhamnetin], the “Inhibitory effects of Myricetin analogues against KDM4B activity” value [1] was “significant inhibitory effects”.

In the case of `O=c1c(O)c(-c2ccc(O)cc2)oc2cc(O)cc(O)c12` [Kaempferol], the “Inhibitory effects of Myricetin analogues against KDM4B activity” value [1] is reported as “significant inhibitory effects”.

For `CN(C)CCCNC(=O)c1ccc(-c2cc(O)c3ncccc3c2)cc1` [ML324], the “Inhibitory activity toward JMJD2E/KDM4E” value [2] is listed as “submicromolar”, the Cell permeability [3] is listed as “good” and the “In vitro ADME properties” value [3] is listed as “good”. The “KDM4A-dependent herpes virus-mediated replication in infected cells” value [4] was “blocked”.

In the case of `O=c1c(O)c(-c2cc(O)c(O)c(O)c2)oc2cc(O)cc(O)c12` [Myricetin], the “Antitumor activity compared with the vehicle control group” value [5] is reported as “significant antitumor activity”, the “Cytotoxic effect alone, compared with enzalutamide alone” value [6] is reported as “better cytotoxic effect” and the “Effect on immortalized normal PZ-HPV-7 line” value [7] is reported as “essentially no effect”. The “Cell proliferation of C4-2B” value [8] was “blocked”, the “Cell growth of LNCaP” value [9] was “significantly reduced level of cell growth” and the IC50 [1] was 1.3 µM. The “Enzymatic inhibitory kinetics, mode (KDM4B)” value ([1]; toward α-ketoglutarate, FIG. 2A) was “competitive inhibition mode”, the “Enzymatic inhibitory kinetics, mode (KDM4C)” value [10] was “competitive mode” and the “H3K9me3 level in C4-2B cells” value [11] was “dose-dependent increased level”. The “H3K36me3 signal in C4-2B cells” value [11] was “relatively comparable signal”, the “Demethylation of H3K9me3 by KDM4C” value [12] was “significantly reduced such an activity” and the IC50 [13] was 38.3 µM.

For `O=c1c(O)c(-c2ccc(O)c(O)c2)oc2cc(O)cc(O)c12` [Quercetin], the “Inhibitory effects of Myricetin analogues against KDM4B activity” value [1] was “significant inhibitory effects”.

For `CNC(=O)c1ccc(N2C(=S)N(c3ccc(C#N)c(C(F)(F)F)c3)C(=O)C2(C)C)cc1F` [enzalutamide], the “Antitumor activity compared with the vehicle control group” value [5] was “significant antitumor activity”, the “Endothelial cell-specific marker CD31 in xenografts” value [14] was “significantly higher level of CD31 was seen in the vehicle group” and the “Expression of proliferation marker Ki-67 in xenografts” value [14] was “significantly lower expression”.
